From paper PMC9501232, “Novel 4-Azapregnene Derivatives as Potential Anticancer Agents: Synthesis, Antiproliferative Activity and Molecular Docking Studies” (Molecules, 2022)

How the values were obtained:
[1] = test system: T47-D cells; experiment: MTT cell proliferation assay, T47-D; format: cell-based, human; settings: 72 h; for MTT screening, cell proliferation: 30 µM, average ± SD; for IC50: Homo sapiens, T47D, MTT
Description: (§1) Cell lines, namely LNCaP, PC-3, T47-D and NHDF were obtained from American Type Culture Collection (ATCC; Manassas, VA, USA) and cultured in 75 cm^2 culture flasks at 37 °C in a humidified air incubator with 5% CO2. LNCaP, PC-3 and T47-D cells, which were used in passages 20th to 27th, 25th to 29th and 10th to 15th, respectively, were cultured in RPMI 1640 medium (Sigma-Aldrich, Inc., St. Louis, MO, USA) with 10% fetal bovine serum (FBS; Sigma-Aldrich, Inc. St. Louis, MO, USA) and 1% of the antibiotic mixture of 10,000 IU/mL penicillin G and […] of streptomycin (Sp, Sigma-Aldrich, Inc. St. Louis, MO, USA). Finally, NHDF cells (Normal Human Dermal Fibroblasts) were cultured in RPMI 1640 medium supplemented with 10% FBS, 2 mM L-glutamine, 10 mM HEPES, 1 mM sodium pyruvate and 1% of an antibiotic/antimycotic mixture (10,000 U/mL penicillin G, 100 mg/mL streptomycin and 25 µg/mL amphotericin B) (Ab; Sigma-Aldrich, Inc. St. Louis, MO, USA), and these cells were used in passages 10 to 12. For all cell types, the medium was renewed every 2–3 days until cells reach nearly the confluence state. Then, they were detached gently by trypsinization (trypsin-EDTA solution: 0.125 g/L of trypsin and 0.02 g/L of EDTA).
(§2) All the stock solutions were prepared by dissolving compounds in dimethyl sulfoxide (DMSO; Sigma-Aldrich, Inc., St. Louis, MO, USA) at 10 mM and stored at 4 °C. From these solutions, the several diluted compounds solutions in different concentrations were freshly prepared in a complete culture medium before each experiment.
(§3) As previously referred, cells were trypsinized after reaching a near confluence state and counted by the trypan blue exclusion assay in a Neubauer chamber. Then, 100 µL of cell suspension/well with an initial density of 2 × 10^4 cells/mL were seeded in 96-well culture plates (Nunc, Apogent, Denmark) and left to adhere for 48 h. After cells adherence, the medium was replaced by the distinct solutions of the compounds in the study (30 µM for preliminary studies and 0.01, 0.1, 1, 10, 50 and 100 µM for concentration–response studies) in the appropriate medium for approximately 72 h. 5-FU and finasteride were used as positive controls and untreated cells were used as the negative control. Each experiment was performed in quadruplicate and independently performed at least two times. The in vitro antiproliferative effects were evaluated by the MTT assay (Sigma-Aldrich, Inc. St. Louis, USA). After the incubation period, the medium was removed and 100 µL of phosphate buffer saline (NaCl 137 mM, KCl 2.7 mM, Na2HPO4 10 mM and KH2PO4 1.8 mM in deionized water and pH adjusted to 7.4) were used to wash the cells. Then, 100 µL of the MTT solution (5 mg/mL) was prepared in the appropriate serum-free medium and was added to each well, followed by incubation for 4 h at 37 °C. Hereafter, the MTT containing medium was removed and the formazan crystals were dissolved in DMSO. Then the absorbance was measured at 570 nm using a microplate spectrophotometer BIO-RAD xMarkTM. Cell viability values were expressed as percentages relative to the absorbance determined in the cells used as negative controls.
(§4) The data are expressed as a mean ± standard deviation (SD) and differences between groups were considered statistically significant when p < 0.05. The IC50 values were determined through sigmoidal fitting analysis with variable slope and considering a 95% confidence level. All data shown are representative of at least two independent experiments.

[2] = test system: PC-3 cells; experiment: MTT cell proliferation assay, PC-3; format: cell-based, human; settings: for MTT screening, cell proliferation: PC-3, 30 µM, 72 h, average ± SD; for IC50: Homo sapiens, PC-3, 72 h, MTT
Description: as §1, §2, §3, §4

[3] = test system: NHDF cells (Normal Human Dermal Fibroblasts); experiment: MTT cell proliferation assay, NHDF; format: cell-based; settings: 72 h; for MTT screening, cell proliferation: 30 µM, average ± SD; for IC50: Homo sapiens, MTT
Description: as §1, §2, §3, §4

[4] = test system: LNCaP cells; experiment: MTT cell proliferation assay, LNCaP; format: cell-based, human; settings: 72 h; for MTT screening, cell proliferation: 30 µM, average ± SD; for IC50: Homo sapiens, MTT
Description: as §1, §2, §3, §4

[5] = test system: T47-D cells; experiment: Cell nuclear morphology and distribution analysis with ImageJ; format: cell-based, human; settings: 20 µM, 48 and 72 h
Text: The nuclear measurements were achieved by converting 16-bit photomicrographs of Hoechst 3342-stained nuclei, in different conditions, into 8-bit images and then these images were autothresholded to binary photos using the default method “Make binary” function of ImageJ v 1.49. Cell nuclei that are touching were separated and fragments were discarded based on the area through the “Analyze Particle” function. This function also provides several information pretended as nuclear area, circumference and form factor [33]. In addition, the “Nearest Neighbor Distance” was determined. This function allows measuring the distance between each cell nucleus and the nearest ones.

[6] = test system: caspase-9 activity in T47-D cells; experiment: Caspase-Glo 9 caspase-9 activity assay; format: cell-based, human; settings: 48 h, DOX 10 µM, 3g 10 and 20 µM, relative to untreated cells
Description: Promega Caspase-Glo 9 assay (Promega, Madison, WI, USA) was employed to evaluate the caspase-9 activity. T47-D cells were seeded in a 96 multiwell plate at a density of 4 × 10^4 cells/mL. After 48 h, cells were treated with the positive control, DOX, at 10 μM and with 10 and 20 μM of 3g, during 48 h. The assay was performed at the end of treatment, following the instructions provided by the manufacturer. Data are representative of at least two experiments (n = 4 in each).

| Compound | MTT screening, cell proliferation [1] | MTT screening, cell proliferation [2] | MTT screening, cell proliferation [3] | MTT screening, cell proliferation [4] | melting point [°C] | IC50 [1] [µM] | IC50 [2] [µM] | IC50 [3] [µM] | IC50 [4] [µM] | Nearest neighbor distance (NND) of cell nuclei [5] | Caspase-9 activity [6] |
| --- | --- | --- | --- | --- | --- | --- | --- | --- | --- | --- | --- |
| 4-Azapregn-4-ene-3,20-dione [Compound 2] | 137.0 ± 18.0 percentage of negative control | 96.7 ± 9.3 percentage of negative control | 106.1 ± 6.0 percentage of negative control | 58.3 ± 13.6 percentage of negative control |  |  |  |  |  |  |  |
| CC(=O)[C@H]1CCC2C3CCC(=O)[C@](C)(CCC(=O)O)C3CC[C@@]21C (stereo partly drawn) [Compound 1] | 130.8 ± 20.8 percentage of negative control | 102.1 ± 5.2 percentage of negative control | 100.0 ± 6.0 percentage of negative control | 96.4 ± 16.1 percentage of negative control | 168 to 169 |  |  |  |  |  |  |
| C[C@]12CC[C@H]3[C@@H](CC=C4NC(=O)CC[C@@]43C)[C@@H]1CC[C@@H]2C(=O)/C=C/c1ccccc1 [Compound 3a, 21E-(Phenylmethylidene)-4-azapregn-5-ene-3,20-dione] | 6.5 ± 5.4 percentage of negative control | 1.4 ± 1.0 percentage of negative control | 25.1 ± 7.4 percentage of negative control | 6.5 ± 5.3 percentage of negative control |  | 16.9 | 12.6 | 64 | 27.5 |  |  |
| Cc1ccc(/C=C/C(=O)[C@H]2CC[C@H]3[C@@H]4CC=C5NC(=O)CC[C@]5(C)[C@H]4CC[C@]23C)cc1 [Compound 3b, 21E-[(4-Methylphenyl)methylidene]-4-azapregn-5-ene-3,20-dione] | 45.0 ± 11.6 percentage of negative control | 25.9 ± 3.8 percentage of negative control | 83.0 ± 3.6 percentage of negative control | 62.7 ± 9.0 percentage of negative control | 191 to 193 | 45 | 25.9 |  |  |  |  |
| C[C@]12CC[C@H]3[C@@H](CC=C4NC(=O)CC[C@@]43C)[C@@H]1CC[C@@H]2C(=O)/C=C/c1ccc([N+](=O)[O-])cc1 [Compound 3c, 21E-[(4-Nitrophenyl)methylidene]-4-azapregn-5-ene-3,20-dione] | 6.7 ± 4.6 percentage of negative control | 0.7 ± 0.5 percentage of negative control | 20.3 ± 2.8 percentage of negative control | 5.2 ± 2.6 percentage of negative control |  | 6.56 | 3.29 | 6.94 | 16.3 |  |  |
| COc1ccc(/C=C/C(=O)[C@H]2CC[C@H]3[C@@H]4CC=C5NC(=O)CC[C@]5(C)[C@H]4CC[C@]23C)cc1 [Compound 3d, 21E-[(4-Methoxyphenyl)methylidene]-4-azapregn-5-ene-3,20-dione] | 73.9 ± 14.6 percentage of negative control | 58.2 ± 6.0 percentage of negative control | 52.4 ± 2.8 percentage of negative control | 88.0 ± 15.5 percentage of negative control | 280 to 282 |  |  |  |  |  |  |
| C[C@]12CC[C@H]3[C@@H](CC=C4NC(=O)CC[C@@]43C)[C@@H]1CC[C@@H]2C(=O)/C=C/c1ccco1 [Compound 3e, 21E-[(Furan-2-yl)methylidene]-4-azapregn-5-ene-3,20-dione] | 92.6 ± 7.4 percentage of negative control | 82.7 ± 6.5 percentage of negative control | 111.6 ± 13.9 percentage of negative control | 85.3 ± 6.7 percentage of negative control | 260 to 261 |  |  |  |  |  |  |
| Cc1ccc(/C=C/C(=O)[C@H]2CC[C@H]3[C@@H]4CC=C5NC(=O)CC[C@]5(C)[C@H]4CC[C@]23C)o1 [Compound 3f, 21E-[(5-Methylfuran-2-yl)methylidene]-4-azapregn-5-ene-3,20-dione] | 104.3 ± 11.3 percentage of negative control | 108.1 ± 7.8 percentage of negative control | 89.7 ± 9.7 percentage of negative control | 88.9 ± 17.7 percentage of negative control | 200 to 203 |  |  |  |  |  |  |
| O=c1[nH]cc(F)c(=O)[nH]1 [Compound 5-FU, 5-fluorouracil, reference compound] | 42.3 ± 6.4 percentage of negative control | 10.8 ± 3.1 percentage of negative control | 33.6 ± 8.2 percentage of negative control | 18.6 ± 2.6 percentage of negative control |  | 0.7 | 3.3 | 29.4 | 1.5 | different distances |  |
| C[C@]12CCC(=O)C[C@@H]1CC[C@@H]1[C@@H]2CC[C@]2(C)[C@@H](O)CC[C@@H]12 [DHT, 5α-dihydrotestosterone, reference compound] | 90.7 ± 9.4 percentage of negative control | 93.1 ± 4.9 percentage of negative control | 100.5 ± 7.4 percentage of negative control | 138.9 ± 3.9 percentage of negative control |  |  |  |  |  |  |  |
| COc1cccc2c1C(=O)c1c(O)c3c(c(O)c1C2=O)C[C@@](O)(C(=O)CO)C[C@@H]3O[C@H]1C[C@H](N)[C@H](O)[C@H](C)O1 [DOX, doxorubicin, reference compound] |  |  |  |  |  |  |  |  |  |  | significant elevation in caspase-9 activity |
| CC(=O)[C@H]1CC[C@H]2[C@@H]3CCC4=CC(=O)CC[C@]4(C)[C@H]3CC[C@]12C [Progesterone, reference compound] | 62.9 ± 6.8 percentage of negative control | 42.9 ± 5.4 percentage of negative control | 96.6 ± 14.3 percentage of negative control | 64.3 ± 16.1 percentage of negative control |  |  |  |  |  |  |  |
| C[C@]12CC[C@H]3[C@@H](CCC4=CC(=O)CC[C@@]43C)[C@@H]1CC[C@@H]2O [Testosterone, reference compound] | 72.0 ± 4.0 percentage of negative control | 89.5 ± 9.0 percentage of negative control | 94.2 ± 7.3 percentage of negative control | 99.2 ± 4.2 percentage of negative control |  |  |  |  |  |  |  |
